Reference: ChEMBL document CHEMBL1145601, “The design and synthesis of diaryl ether second generation HIV-1 non-nucleoside reverse transcriptase inhibitors (NNRTIs) with enhanced potency versus key clinical mutations” (Bioorg Med Chem Lett, 2008)

Assays:
[1] = biological target: Human immunodeficiency virus type 1 reverse transcriptase (Human immunodeficiency virus 1, UniProt Q72547); assay: Inhibition of HIV1 reverse transcriptase by SPA assay
[2] = biological target: Human immunodeficiency virus type 1 reverse transcriptase (Human immunodeficiency virus 1, UniProt Q72547, K103N); assay: Inhibition of HIV1 reverse transcriptase K103N mutant by SPA assay
[3] = biological target: Human immunodeficiency virus type 1 reverse transcriptase (Human immunodeficiency virus 1, UniProt Q72547, Y181C); assay: Inhibition of HIV1 reverse transcriptase Y181C mutant by SPA assay
[4] = system: Human immunodeficiency virus 1; assay: Antiviral activity against HIV1 in human MT4 cells in RPMI1640 media containing fetal bovine serum; type: functional; conditions: Human immunodeficiency virus 1, MT4; read-out: CIC95
[5] = system: Human immunodeficiency virus 1; assay: Antiviral activity against HIV1 with RT K103N mutation in human MT4 cells in presence of 10% fetal bovine serum; type: functional; conditions: Human immunodeficiency virus 1, MT4; read-out: CIC95
[6] = system: Human immunodeficiency virus 1; assay: Antiviral activity against HIV1 with RT Y181C mutation in human MT4 cells in presence of 10% fetal bovine serum; type: functional; conditions: Human immunodeficiency virus 1, MT4; read-out: CIC95
[7] = system: Human immunodeficiency virus 1; assay: Antiviral activity against HIV1 in human MT4 cells in presence of 50% normal human serum; type: functional; conditions: Human immunodeficiency virus 1, MT4; read-out: CIC95
[8] = system: Human immunodeficiency virus 1; assay: Antiviral activity against HIV1 with RT G190A mutation in human MT4 cells in presence of 40% normal human serum; type: functional, organism-based; conditions: Human immunodeficiency virus 1, MT4
[9] = system: Human immunodeficiency virus 1; assay: Antiviral activity against HIV1 with RT G190S mutation in human MT4 cells in presence of 40% normal human serum; type: functional, organism-based; conditions: Human immunodeficiency virus 1, MT4
[10] = system: Human immunodeficiency virus 1; assay: Antiviral activity against HIV1 with RT L100I mutation in human MT4 cells in presence of 40% normal human serum; type: functional, organism-based; conditions: Human immunodeficiency virus 1, MT4
[11] = system: Human immunodeficiency virus 1; assay: Antiviral activity against HIV1 with RT K103N mutation in human MT4 cells in presence of 40% normal human serum; type: functional, organism-based; conditions: Human immunodeficiency virus 1, MT4
[12] = system: Human immunodeficiency virus 1; assay: Antiviral activity against HIV1 with RT Y181C mutation in human MT4 cells in presence of 40% normal human serum; type: functional, organism-based; conditions: Human immunodeficiency virus 1, MT4
[13] = system: Human immunodeficiency virus 1; assay: Antiviral activity against HIV1 with RT Y188L mutation in human MT4 cells in presence of 40% normal human serum; type: functional, organism-based; conditions: Human immunodeficiency virus 1, MT4
[14] = system: Human immunodeficiency virus 1; assay: Antiviral activity against HIV1 with RT K101E/G190A mutation in human MT4 cells in presence of 40% normal human serum; type: functional, organism-based; conditions: Human immunodeficiency virus 1, MT4
[15] = system: Human immunodeficiency virus 1; assay: Antiviral activity against HIV1 with RT K103N/G190A mutation in human MT4 cells in presence of 40% normal human serum; type: functional, organism-based; conditions: Human immunodeficiency virus 1, MT4
[16] = system: Human immunodeficiency virus 1; assay: Antiviral activity against HIV1 with RT K103N/P225H mutation in human MT4 cells in presence of 40% normal human serum; type: functional, organism-based; conditions: Human immunodeficiency virus 1, MT4
[17] = system: Human immunodeficiency virus 1; assay: Antiviral activity against HIV1 with RT K103N/V179E mutation in human MT4 cells in presence of 40% normal human serum; type: functional, organism-based; conditions: Human immunodeficiency virus 1, MT4
[18] = system: Human immunodeficiency virus 1; assay: Antiviral activity against HIV1 with RT K103N/Y181C mutation in human MT4 cells in presence of 40% normal human serum; type: functional, organism-based; conditions: Human immunodeficiency virus 1, MT4
[19] = system: Human immunodeficiency virus 1; assay: Antiviral activity against HIV1 with RT Y181C/G190A mutation in human MT4 cells in presence of 40% normal human serum; type: functional, organism-based; conditions: Human immunodeficiency virus 1, MT4
[20] = system: Human immunodeficiency virus 1; assay: Antiviral activity against HIV1 with RT K103N/Y181C/G190A mutation in human MT4 cells in presence of 40% normal human serum; type: functional, organism-based; conditions: Human immunodeficiency virus 1, MT4
[21] = Half life in Sprague-Dawley rat at 2 mg/kg, iv; type: ADME, organism-based; design: dose 2 mg/kg, route intravenous; conditions: in vivo
[22] = Clearance in Sprague-Dawley rat at 2 mg/kg, iv; type: ADME, organism-based; design: dose 2 mg/kg, route intravenous; conditions: in vivo
[23] = AUC in Sprague-Dawley rat at 10 mg/kg, po and 2 mg/kg, iv; type: ADME, organism-based; conditions: plasma
[24] = Volume of distribution in Sprague-Dawley rat at 10 mg/kg, po and 2 mg/kg, iv; type: ADME, organism-based; conditions: in vivo
[25] = Oral bioavailability in Sprague-Dawley rat at 10 mg/kg, po and 2 mg/kg, iv; type: ADME, organism-based; conditions: in vivo
[26] = Half life in Beagle dog at 0.25 mg/kg, iv; type: ADME, organism-based, Canis lupus familiaris; design: dose 0.25 mg/kg, route intravenous; conditions: in vivo
[27] = Clearance in Beagle dog at 0.25 mg/kg, iv; type: ADME, organism-based, Canis lupus familiaris; design: dose 0.25 mg/kg, route intravenous; conditions: in vivo
[28] = AUC in Beagle dog at 0.25 mg/kg, iv; type: ADME, organism-based, Canis lupus familiaris; design: dose 0.25 mg/kg, route intravenous; conditions: plasma
[29] = Volume of distribution in Beagle dog at 0.25 mg/kg, iv; type: ADME, organism-based, Canis lupus familiaris; design: dose 0.25 mg/kg, route intravenous; conditions: in vivo
[30] = Half life in rhesus monkey at 1 mg/kg, iv; type: ADME, organism-based, Macaca mulatta; design: dose 1 mg/kg, route intravenous; conditions: in vivo
[31] = Clearance in rhesus monkey at 1 mg/kg, iv; type: ADME, organism-based, Macaca mulatta; design: dose 1 mg/kg, route intravenous; conditions: in vivo
[32] = AUC in rhesus monkey at 1 mg/kg, iv; type: ADME, organism-based, Macaca mulatta; design: dose 1 mg/kg, route intravenous; conditions: plasma
[33] = Volume of distribution in rhesus monkey at 1 mg/kg, iv; type: ADME, organism-based, Macaca mulatta; design: dose 1 mg/kg, route intravenous; conditions: in vivo
[34] = system: Human immunodeficiency virus 1; assay: Antiviral activity against HIV1 in human MT4 cells in presence of 40% normal human serum; type: functional, organism-based; conditions: Human immunodeficiency virus 1, MT4

`Cc1cc(S(N)(=O)=O)ccc1NC(=O)COc1ccc(Cl)cc1C(=O)c1cc(Cl)cc(C#N)c1` gave an IC50 [1] of 2.16 nM, an IC50 [2] of 3.16 nM and an IC50 [3] of 2.48 nM. For the same compound, the IC95 [4] was 0.00265 µM, the IC95 [5] was 6.98 nM and the IC95 [6] was 0.00328 µM. It also gave an IC95 [7] of 0.0305 µM.

`NS(=O)(=O)c1ccc(NC(=O)COc2cc(Cl)cc(Oc3ccccc3)c2)c(Cl)c1` showed an IC50 [1] of 10.5 nM, an IC50 [2] of 218 nM and an IC50 [3] of 25 nM.

With `N#Cc1cccc(Oc2cc(Cl)cc(OCC(=O)Nc3ccc(S(N)(=O)=O)cc3Cl)c2)c1` the IC50 [1] was 0.96 nM, the IC50 [2] was 14.4 nM and the IC50 [3] was 1.2 nM. It also gave an IC95 [4] of 0.008 µM and an IC95 [7] of 0.16 µM.

For `NS(=O)(=O)c1ccc(NC(=O)COc2cccc(Oc3ccccc3)c2)c(Cl)c1`, the IC50 [1] was 51.7 nM, the IC50 [2] was 192 nM and the IC50 [3] was 722 nM.

Compound `N#Cc1cc(Cl)cc(Oc2cc(OCc3nc4cccc(Cl)c4[nH]3)ccc2Cl)c1` has an IC50 [1] of 3.2 nM, an IC50 [2] of 7.3 nM and an IC50 [3] of 50 nM. For the same compound, the IC95 [4] was 0.103 µM and the IC95 [7] was 2.78 µM.

Work on `N#Cc1cc(Cl)cc(Oc2cc(Cl)cc(OCC(=O)Nc3ccc(S(N)(=O)=O)cc3Cl)c2)c1` yielded an IC50 [2] of 3.48 nM, an IC50 [3] of 2.66 nM and an IC95 [4] of 0.016 µM. For the same compound, the IC95 [7] was 0.125 µM.

`N#Cc1cc(Cl)cc(Oc2cc(OCC(=O)Nc3ccc(S(N)(=O)=O)cc3Cl)ccc2Cl)c1` gave an IC50 [1] of 0.14 nM, an IC50 [2] of 0.21 nM and an IC50 [3] of 0.28 nM. For the same compound, the IC95 [4] was 0.00756 µM, the IC95 [5] was 9.52 nM and the IC95 [6] was 0.0149 µM. It also gave an IC95 [7] of 0.0239 µM.

`N#Cc1cc(Cl)cc(Oc2cc(OCc3nc4ccccc4s3)ccc2Cl)c1` showed an IC50 [1] of 19.3 nM, an IC50 [2] of 79.2 nM and an IC50 [3] of 54.9 nM. For the same compound, the IC95 [4] was 0.312 µM and the IC95 [7] was 1.25 µM.

With `CS(=O)(=O)c1ccc(NC(=O)COc2ccc(Cl)c(Oc3cc(Cl)cc(C#N)c3)c2)c(Cl)c1` the IC50 [1] was 0.99 nM, the IC50 [2] was 1.33 nM and the IC50 [3] was 0.91 nM. It also gave an IC95 [4] of 0.031 µM and an IC95 [7] of 0.078 µM.

Work on `CS(=O)(=O)c1ccc2c(c1)CCN2C(=O)COc1ccc(Cl)c(Oc2cc(Cl)cc(C#N)c2)c1` yielded an IC50 [1] of 0.86 nM, an IC50 [2] of 0.33 nM and an IC50 [3] of 1.7 nM. For the same compound, the IC95 [4] was 0.00368 µM, the IC95 [5] was 5.26 nM and the IC95 [6] was 0.0143 µM. The IC95 [7] was 0.0297 µM.

Compound `Cc1cc(C)c(-n2nnnc2SCC(=O)Nc2ccc(S(N)(=O)=O)cc2Cl)c(C)c1` has an IC50 [1] of 4.05 nM, an IC50 [2] of 10.4 nM and an IC50 [3] of 34.5 nM. The IC95 [4] was 0.016 µM and the IC95 [7] was 0.062 µM.

In the case of `N#Cc1cc(Cl)cc(Oc2cc(OCc3nc4cccc(Cl)c4s3)ccc2Cl)c1`, the IC50 [1] is reported as 3.06 nM, the IC50 [2] is reported as 5.98 nM and the IC50 [3] is reported as 5.15 nM. The IC95 [4] was 0.156 µM and the IC95 [7] was 1.25 µM.

Compound `N#Cc1cc(Cl)cc(Oc2cc(OCc3n[nH]c4ccccc34)ccc2Cl)c1` has an IC50 [8] of 9.4 nM, an IC50 [9] of 23.4 nM and an IC50 [10] of 2.6 nM. The IC50 [11] was 7.9 nM, the IC50 [12] was 13.8 nM and the IC50 [13] was > 1000 nM. It also gave an IC50 [14] of 21 nM, an IC50 [15] of 21.7 nM and an IC50 [16] of 29.3 nM. The IC50 [17] was 20.3 nM, the IC50 [18] was 141 nM and the IC50 [19] was 35.8 nM. For the same compound, the IC50 [20] was 171 nM, the IC50 [2] was 1.12 nM and the IC50 [3] was 2.62 nM. The IC95 [4] was 0.0226 µM, the IC95 [5] was 33.4 nM and the IC95 [6] was 0.102 µM. It also gave an IC95 [7] of 0.114 µM, a half-life [21] of 282 min and a clearance [22] of 13.6 mL/min/kg. The AUC [23] was 6.2 µM·h, the Vd [24] was 2.9 L/kg and the bioavailability [25] was 3.3%. The half-life [26] was 90 min, the clearance [27] was 28.9 mL/min/kg and the AUC [28] was 0.4 µM·h. The Vd [29] was 1.2 L/kg, the half-life [30] was 486 min and the clearance [31] was 24 mL/min/kg. It also gave an AUC [32] of 1.7 µM·h, a Vd [33] of 7.1 L/kg and an IC50 [34] of 4.7 nM.

`N#Cc1cc(Cl)cc(Oc2cc(OCc3nc4cccc(Cl)c4o3)ccc2Cl)c1` showed an IC50 [1] of 0.59 nM, an IC50 [2] of 1.41 nM and an IC50 [3] of 6.38 nM. It also gave an IC95 [4] of 0.078 µM and an IC95 [7] of 0.312 µM.
